Laboratory results reported in ChEMBL document CHEMBL6121021, “Design and Synthesis of Topoisomerases-Histone Deacetylase Dual Targeted Quinoline-Bridged Hydroxamates as Anticancer Agents” (J Med Chem, 2025).
Calls of active or inactive are those of the source. The calls are words filed in the database; no cut-off is given here.

How the values were obtained:
Histone deacetylase 1 [1] = molecular target: T1, Histone deacetylase 1 (Homo sapiens, UniProt Q13547); assay: Inhibition of HDAC1 (unknown origin)
T1 sequence (Q13547 whole entry): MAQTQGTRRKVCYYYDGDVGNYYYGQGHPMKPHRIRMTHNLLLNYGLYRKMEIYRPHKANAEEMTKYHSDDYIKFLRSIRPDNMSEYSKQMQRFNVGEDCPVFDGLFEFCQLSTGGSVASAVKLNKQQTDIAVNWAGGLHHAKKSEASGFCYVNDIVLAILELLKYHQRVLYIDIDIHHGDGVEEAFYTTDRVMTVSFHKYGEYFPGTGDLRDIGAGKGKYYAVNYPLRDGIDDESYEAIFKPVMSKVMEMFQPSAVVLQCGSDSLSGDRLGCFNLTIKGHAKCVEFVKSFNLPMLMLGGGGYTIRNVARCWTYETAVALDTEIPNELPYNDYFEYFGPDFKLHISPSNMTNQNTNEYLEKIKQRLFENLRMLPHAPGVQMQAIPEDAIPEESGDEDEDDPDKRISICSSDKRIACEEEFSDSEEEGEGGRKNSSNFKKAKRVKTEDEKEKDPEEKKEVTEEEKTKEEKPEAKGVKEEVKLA

[2] = molecular target: T2, Protein deacetylase HDAC6 (Homo sapiens, UniProt Q9UBN7); assay: Inhibition of HDAC6 (unknown origin)
T2 sequence (Q9UBN7 whole entry): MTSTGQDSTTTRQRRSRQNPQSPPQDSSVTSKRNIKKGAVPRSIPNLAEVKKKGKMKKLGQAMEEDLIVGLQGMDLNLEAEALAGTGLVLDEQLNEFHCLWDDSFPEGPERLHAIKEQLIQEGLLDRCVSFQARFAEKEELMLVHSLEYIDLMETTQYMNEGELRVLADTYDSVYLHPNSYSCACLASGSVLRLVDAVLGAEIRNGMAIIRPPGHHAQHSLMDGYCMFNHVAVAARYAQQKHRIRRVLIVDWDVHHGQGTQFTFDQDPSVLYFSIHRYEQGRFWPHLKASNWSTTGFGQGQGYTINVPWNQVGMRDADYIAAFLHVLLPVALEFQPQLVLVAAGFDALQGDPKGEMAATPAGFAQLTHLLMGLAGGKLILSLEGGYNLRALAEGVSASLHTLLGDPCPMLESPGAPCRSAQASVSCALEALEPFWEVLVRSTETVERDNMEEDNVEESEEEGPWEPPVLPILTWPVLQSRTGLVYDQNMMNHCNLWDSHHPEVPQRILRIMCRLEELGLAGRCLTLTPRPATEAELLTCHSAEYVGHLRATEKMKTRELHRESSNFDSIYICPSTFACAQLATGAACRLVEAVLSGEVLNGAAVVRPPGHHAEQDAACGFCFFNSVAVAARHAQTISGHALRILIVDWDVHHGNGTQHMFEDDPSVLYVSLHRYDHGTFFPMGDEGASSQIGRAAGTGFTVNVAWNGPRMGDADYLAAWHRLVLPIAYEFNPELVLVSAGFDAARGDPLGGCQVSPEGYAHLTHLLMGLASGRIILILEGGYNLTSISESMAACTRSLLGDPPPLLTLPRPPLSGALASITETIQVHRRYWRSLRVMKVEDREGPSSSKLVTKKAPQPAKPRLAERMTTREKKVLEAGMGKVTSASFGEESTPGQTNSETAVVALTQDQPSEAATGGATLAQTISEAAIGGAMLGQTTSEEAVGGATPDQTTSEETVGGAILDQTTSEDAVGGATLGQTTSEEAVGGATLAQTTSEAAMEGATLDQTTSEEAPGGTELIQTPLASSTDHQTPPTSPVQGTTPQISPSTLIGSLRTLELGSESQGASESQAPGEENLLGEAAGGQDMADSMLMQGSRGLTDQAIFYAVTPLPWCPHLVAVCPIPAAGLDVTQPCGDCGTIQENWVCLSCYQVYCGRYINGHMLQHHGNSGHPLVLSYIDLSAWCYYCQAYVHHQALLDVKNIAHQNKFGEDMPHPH

A549 [3] = assay: Induction of cell cycle arrest in human A549 cells assessed as accumulation at G1 phase by PI staining based flow cytometry; type: functional
A549 [4] = assay: Induction of ROS generation in human A549 cells incubated for 48 hrs by DCFH-DA staining based analysis; type: functional, cell-based
A549 [5] = assay: Effect on mitochondrial membrane permeability in human A549 cells assessed as decrease in red to green fluorescence ratio at sub-IC50 incubated for 48 hrs by JC-1 staining based analysis; type: functional, cell-based
A549 [6] = assay: Induction of apoptosis in human A549 cells by Annexin-V/PI staining based flow cytometry; type: functional, cell-based
Histone deacetylase 8 = molecular target: T3, Histone deacetylase 8 (Homo sapiens, UniProt Q9BY41); assay: Inhibition of HDAC8 (unknown origin) by fluorometric assay
T3 sequence (Q9BY41 whole entry): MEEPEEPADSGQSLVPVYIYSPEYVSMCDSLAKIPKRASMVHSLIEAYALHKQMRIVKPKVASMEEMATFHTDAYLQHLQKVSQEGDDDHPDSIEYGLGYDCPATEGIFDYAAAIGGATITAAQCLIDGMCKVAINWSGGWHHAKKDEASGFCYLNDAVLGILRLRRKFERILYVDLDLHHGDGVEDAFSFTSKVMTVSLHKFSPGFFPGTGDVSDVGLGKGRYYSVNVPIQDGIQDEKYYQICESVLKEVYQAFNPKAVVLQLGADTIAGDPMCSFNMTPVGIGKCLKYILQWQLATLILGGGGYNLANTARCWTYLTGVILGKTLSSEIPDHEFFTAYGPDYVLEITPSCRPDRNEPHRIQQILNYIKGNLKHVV

A549 [7] = assay: Induction of cell cycle arrest in human A549 cells assessed as accumulation at G2/M phase by PI staining based flow cytometry; type: functional
[8] = molecular target: T2, Protein deacetylase HDAC6; assay: Inhibition of HDAC6 (unknown origin) using acetylated-peptide substrate by fluorometric assay
Histone deacetylase 1 [9] = molecular target: T1, Histone deacetylase 1; assay: Inhibition of HDAC1 extracted from human A549 nucleus incubated for 1 hr by fluorometric assay; type: cell-free
A549 [10] = assay: Induction of ROS generation in human A549 cells incubated for 48 hrs by Cell Rox red staining based flow cytometry; type: functional
A549 [11] = assay: Anti-cancer activity against human A549 3D cell culture model at sub- IC50 incubated for 17 days with replacement of medium containing compound on every third day; type: functional, cell-based; conditions: time 17.0 day
NCI-H1299 = assay: cells; type: functional, cell-based; conditions: Homo sapiens, NCI-H1299, 48 h
[12] = molecular target: DNA topoisomerase 2-alpha (Homo sapiens, UniProt P11388); assay: Inhibition of human Topo II-alpha-mediated decatenation of kDNA at 100 uM incubated for 30 mins
Sequence of DNA topoisomerase 2-alpha (P11388 whole entry): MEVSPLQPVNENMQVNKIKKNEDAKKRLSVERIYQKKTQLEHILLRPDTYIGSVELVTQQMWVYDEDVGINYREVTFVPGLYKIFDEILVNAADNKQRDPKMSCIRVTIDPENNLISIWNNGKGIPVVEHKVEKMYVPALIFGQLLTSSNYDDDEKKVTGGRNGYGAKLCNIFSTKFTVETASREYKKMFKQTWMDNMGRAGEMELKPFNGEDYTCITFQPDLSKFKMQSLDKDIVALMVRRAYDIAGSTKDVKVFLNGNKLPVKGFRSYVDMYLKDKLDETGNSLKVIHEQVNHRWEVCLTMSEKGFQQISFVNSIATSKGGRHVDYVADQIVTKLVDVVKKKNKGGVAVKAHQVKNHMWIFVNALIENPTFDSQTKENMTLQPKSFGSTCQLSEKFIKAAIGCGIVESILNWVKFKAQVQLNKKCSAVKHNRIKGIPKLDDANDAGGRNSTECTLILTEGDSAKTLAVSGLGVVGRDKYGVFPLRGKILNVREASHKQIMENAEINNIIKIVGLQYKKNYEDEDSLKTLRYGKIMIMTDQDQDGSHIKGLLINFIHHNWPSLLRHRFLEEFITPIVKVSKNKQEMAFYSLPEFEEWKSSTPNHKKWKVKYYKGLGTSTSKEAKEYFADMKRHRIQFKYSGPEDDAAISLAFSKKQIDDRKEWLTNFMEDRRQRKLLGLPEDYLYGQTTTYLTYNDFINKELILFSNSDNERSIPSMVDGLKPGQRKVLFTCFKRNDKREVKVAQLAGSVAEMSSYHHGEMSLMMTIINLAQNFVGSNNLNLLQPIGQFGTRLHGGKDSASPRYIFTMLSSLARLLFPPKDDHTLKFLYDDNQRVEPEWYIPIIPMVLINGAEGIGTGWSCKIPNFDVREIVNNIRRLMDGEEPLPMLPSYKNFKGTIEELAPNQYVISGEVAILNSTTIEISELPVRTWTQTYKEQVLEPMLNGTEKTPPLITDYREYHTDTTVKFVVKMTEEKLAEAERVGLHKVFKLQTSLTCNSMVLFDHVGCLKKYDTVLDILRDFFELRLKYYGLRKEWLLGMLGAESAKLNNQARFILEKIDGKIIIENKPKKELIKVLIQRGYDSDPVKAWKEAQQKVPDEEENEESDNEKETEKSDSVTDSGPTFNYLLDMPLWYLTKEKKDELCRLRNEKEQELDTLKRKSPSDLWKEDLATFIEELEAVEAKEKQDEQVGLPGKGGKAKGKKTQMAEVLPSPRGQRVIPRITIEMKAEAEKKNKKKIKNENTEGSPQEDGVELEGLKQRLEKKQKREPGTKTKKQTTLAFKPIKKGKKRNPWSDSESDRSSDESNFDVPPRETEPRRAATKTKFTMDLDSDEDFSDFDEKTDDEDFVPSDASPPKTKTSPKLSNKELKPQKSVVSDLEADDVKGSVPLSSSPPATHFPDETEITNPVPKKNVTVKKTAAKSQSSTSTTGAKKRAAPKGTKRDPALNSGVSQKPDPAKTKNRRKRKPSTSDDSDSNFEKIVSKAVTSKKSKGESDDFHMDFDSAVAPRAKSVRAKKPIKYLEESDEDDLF

Supercoiled DNA = assay: Binding affinity to supercoiled DNA (unknown origin) assessed as DNA intercalation measured after 30 mins by gel electrophoresis; type: nucleic-acid assay
[13] = molecular target: T4, DNA topoisomerase 1 (Homo sapiens) (UniProt P11387); assay: Inhibition of human Topo I-mediated relaxation of supercoiled DNA preincubated for 30 mins followed by proteinase K addition measured after 30 mins by gel electrophoresis; conditions: time 60.0 min
T4 sequence (whole entry): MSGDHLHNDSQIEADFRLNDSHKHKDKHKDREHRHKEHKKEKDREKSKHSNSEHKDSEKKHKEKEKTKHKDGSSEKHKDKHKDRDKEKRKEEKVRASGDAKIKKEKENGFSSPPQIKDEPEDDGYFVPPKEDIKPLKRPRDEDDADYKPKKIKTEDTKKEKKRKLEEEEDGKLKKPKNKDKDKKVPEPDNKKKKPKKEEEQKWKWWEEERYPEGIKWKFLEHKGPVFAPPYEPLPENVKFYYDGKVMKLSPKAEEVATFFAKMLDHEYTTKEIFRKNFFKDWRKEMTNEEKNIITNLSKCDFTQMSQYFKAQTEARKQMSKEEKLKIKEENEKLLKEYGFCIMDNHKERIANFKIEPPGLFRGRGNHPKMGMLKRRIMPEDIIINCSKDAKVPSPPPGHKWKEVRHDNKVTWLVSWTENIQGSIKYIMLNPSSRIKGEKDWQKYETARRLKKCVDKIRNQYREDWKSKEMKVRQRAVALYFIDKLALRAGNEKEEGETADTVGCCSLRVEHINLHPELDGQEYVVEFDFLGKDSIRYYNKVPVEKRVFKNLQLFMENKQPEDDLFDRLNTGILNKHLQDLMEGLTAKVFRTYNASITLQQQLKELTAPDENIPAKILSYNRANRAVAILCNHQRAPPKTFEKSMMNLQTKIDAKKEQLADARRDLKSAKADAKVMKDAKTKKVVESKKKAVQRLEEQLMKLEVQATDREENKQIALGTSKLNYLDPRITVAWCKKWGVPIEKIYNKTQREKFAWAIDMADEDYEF

HT-29 = assay: cells; type: functional, cell-based; conditions: Homo sapiens, HT-29, 48 h
MCF7 = assay: cells; type: functional, cell-based; conditions: Homo sapiens, MCF7, 48 h
MDA-MB-231 [14] = assay: cells; type: functional, cell-based; conditions: Homo sapiens, MDA-MB-231, 48 h
A549 [15] = assay: Anti-cancer activity against human A549 3D cell culture model assessed as inhibition of 3D culture initiation at sub- IC50 incubated for 21 days with replacement of medium containing compound on every seventh day; type: functional, cell-based; conditions: time 21.0 day
A549 [16] = assay: cells; conditions: Homo sapiens, A549, 48 h
MDA-MB-231 [17] = assay: Anti-cancer activity against human MDA-MB-231 cells assessed as decrease in PCNA level at 5 uM incubated for 48 hrs by immunoblot analysis; type: functional, cell-based
Histone deacetylase 1 [18] = molecular target: T1, Histone deacetylase 1; assay: Inhibition of HDAC1 (unknown origin) incubated for 48 hrs
[19] = Toxicity in athymic nude Crl:NU-Foxn1nu mouse xenografted with human A549 cells assessed as animal survival at 30 mg/kg, po administered twice a week for 1 month; type: organism-based; conditions: in vivo, 730 h, time 1 months
[20] = Antiproliferative activity against human NCI-H1975 cells harboring EGFR T790M mutant incubated for 48 hrs by MTT assay; type: functional, cell-based; conditions: NCI-H1975, 48 h

SMILES | IC50 (Histone deacetylase 8) [nM] | IC50 [8] [nM] | IC50 (Histone deacetylase 1 [9]) [nM] | IC50 (NCI-H1299) [µM] | inhibition [12] | Activity (Supercoiled DNA) | IC50 (HT-29) [µM] | IC50 (MCF7) [µM] | IC50 (MDA-MB-231 [14]) [µM] | IC50 (A549 [16]) [nM] | further results
CC[C@@]1(O)C(=O)OCc2c1cc1n(c2=O)Cc2c-1nc1ccccc1c2/C=N\OCCCCCCC(=O)NO |  |  |  |  |  |  |  |  |  |  | IC50 (Histone deacetylase 1 [1]): 5.26 nM; IC50 [2]: 5.22 nM
O=C(CCCCCn1cc(-c2ccc(Nc3c4ccccc4nc4ccccc34)cc2)nn1)NO |  |  |  |  |  |  |  |  |  |  | IC50 (Histone deacetylase 1 [1]): 3.9 nM; IC50 [2]: 2.9 nM
COc1ccc(-c2ccc3ccc(OCCCCCC(=O)NO)cc3n2)cc1I | > 500 | 47.8 | 33.5 | 1.98 | Active; Observed As More Active Than Etoposide | inactive | 2.86 | 2.87 | 1.49 | 1770 | Activity (A549 [3]): Active; Activity (A549 [4]): Active; Activity (A549 [5]): Not active; Result Signifies That Cell Death Induced Via Mitochondrial-Independent Pathways; Activity (A549 [6]): Active; Activity (A549 [7]): Active; Activity (A549 [10]): Active; Activity (A549 [11]): Active; Exhibited Potent Effect; inhibition [13]: Active; inhibition (A549 [15]): Active
CN1c2ccc(NCc3ccc(-c4noc(CC(=O)NO)n4)cc3)cc2C(O)N2CCc3c([nH]c4ccc(O)cc34)C12 (stereo unspecified) |  |  |  |  |  |  |  |  |  |  | IC50 (Histone deacetylase 1 [1]): 24 nM; IC50 [2]: 13 nM
COc1ccc(-c2ccc3cc(OCCCCCCC(=O)NO)ccc3n2)cc1 | > 500 | > 500 | 28 | 2.33 | Active; Observed As More Active Than Etoposide | inactive | 3.91 | 1.44 | 0.978 | 1600 | Activity (A549 [3]): Active; Activity (A549 [4]): Active; Activity (A549 [5]): Active; Result Signifies That Cell Death Induced Via Mitochondrial-Dependent Pathways; Activity (A549 [6]): Active; Activity (A549 [7]): Active; Activity (A549 [10]): Active; Activity (A549 [11]): Active; Exhibited Commendable Decrease In Mass Of 3D Sphere; inhibition [13]: Active; inhibition (A549 [15]): Active
CC[C@@]1(O)C(=O)OCc2c1cc1n(c2=O)Cc2cc3ccccc3nc2-1 [CAMPTOTHECIN] |  |  |  | 5.22 |  |  | 6.87 | 5.67 | 7.36 | 6860 | Activity (MDA-MB-231 [17]): inactive
COc1cc(-c2ccc3cc(OCCCCCCC(=O)NO)ccc3n2)cc(OC)c1OC | > 500 | 243 | 69.8 | 4.81 | Active | inactive | 4.97 | 4.66 | 5.87 | 3750 | 
O=C(CCCCCOc1ccc(-c2nc3ccccc3c3cc(-c4ccccc4)nn23)cc1)NO |  |  |  |  |  |  |  |  |  |  | IC50 (Histone deacetylase 1 [18]): 790 nM
O=C(CCCCCCOc1ccc(-c2ccc3ccccc3n2)cc1)NO | > 500 | 276 | 66.5 | 2.46 | Active; Observed As More Active Than Etoposide | inactive | 3.45 | 4.82 | 3.81 | 853 | 
O=C(CCCCCCC(=O)Nc1ccccc1)NO [VORINOSTAT] |  |  |  |  |  |  |  |  |  | 7760 | Activity [19]: Non-toxic; IC50 [20]: 1030 nM
COc1cc([C@@H]2c3cc4c(cc3[C@@H](O[C@@H]3O[C@@H]5CO[C@@H](C)O[C@H]5[C@H](O)[C@H]3O)[C@H]3COC(=O)[C@H]23)OCO4)cc(OC)c1O [ETOPOSIDE] |  |  |  |  |  |  |  |  |  |  | Activity [19]: Non-toxic; IC50 [20]: 1630 nM
O=C(CCCCCCOc1ccc2nc(-c3ccccc3)ccc2c1)NO | > 500 | > 500 | 47.4 | 4.25 | Active; Observed As More Active Than Etoposide | inactive | 8.34 | 9.38 | 8.93 | 3950 | 
COc1cc(-c2ccc3cc(OCCCCCC(=O)NO)ccc3n2)cc(OC)c1OC | > 500 | > 500 | 44.1 | 3.23 | Active | inactive | 1.9 | 5.22 | 6.24 | 1850 | 
